{"source": "patent US10500178B2", "about": "“LTB4 inhibition to prevent and treat human lymphedema” (The Board of Trustees of the Leland Stanford Junior …, priority 2015, dated 2019)", "key": {"[1]": {"system": "Notch signaling", "assay": "Notch signaling in mouse lymphedema (NICD, Hey1, EphrinB2)", "type": "in vivo", "details": "WT mice", "description": "All small molecule drugs were administered through daily intraperitoneal injection.\nWestern Blot HLECs were lysed with RIPA buffer containing protease and phosphatase inhibitors. Lysates were sonicated briefly and centrifuged. The supernatant was collected and protein concentration was determined by BCA assay. 60 µg of protein were resolved on a 10% SDS-PAGE gel, transferred to a nitrocellulose membrane, blocked with 5% milk and probed with one of the following antibodies: anti-Sphk1 (3297,Cell Signaling); antip-Sphk1(SP1641, ECM Biosciences); anti-NICD (ab8925,Abcam), anti-VEGFR3 (AF743,R&D); anti-DLL4 (ab7280, Abcam). Actin was used to normalize the total protein. […] Images were acquired by Zeiss 710 confocal microscopy and analyzed using ImageJ software.\nQuantitative RT-PCR. Quantitative PCR (qRT-PCR) was performed using FastStart SYBR Green (Roche) on a Lightcycler 480. mRNA expression relative to GAPDH mRNA levels were calculated using the delta-delta threshold cycle (ΔΔCT) method. […]"}, "[2]": {"system": "LEC S1pr1−/− mice", "assay": "lymphedema surgery in LEC S1pr1-/- mice", "type": "in vivo, mouse", "description": "To generate lymphatic endothelial specific tdTomato reporter mice (Prox1-Cre-ER-tdTomato), Prox1-Cre-ER mice were crossed with tdTomato mice. To create lymphatic endothelial cell specific Notch1 or S1pr1 conditional knockouts, Prox1-Cre-ER mice were crossed with Notch1loxp/loxp or S1pr1loxp/loxp mice. Mice with Prox1-Cre-ER and both target alleles floxed by Prox1-Cre-ER/Notch1^loxp/loxp or Prox1-Cre-ER/S1pr1^loxp/loxp were considered to be either lymphatic endothelial cell-specific Notch1 knockout (LEC Notch1−/−) or S1pr1 knockout (LEC S1pr1^−/−), respectively. Mice expressing Prox1-Cre-ER were used as WT controls. […] Cre-mediated gene knockout efficiency was evaluated by enumerating Notch1- or S1PR1-expressing lymphatic endothelial cells or by qRT-PCR measurements of Notch1 or S1pr1 transcripts in the lymphatic endothelial cells, sorted by flow cytometry. […]\nTail volume quantitation. Tail-volume measurements at each designated time were quantified by observers blinded to the treatment status of the subjects. Tail volumes were calculated through a digital photographic technique pre-operatively, and post-operatively (d3, d9, d14, d20, and d24), using an Olympus D520 Zoom digital camera at SHQ resolution at a fixed distance from the subject (37 cm), as previously described. […]"}}}
{"smiles": "CC(C)C[C@H](NC(=O)[C@@H](O)[C@H](N)Cc1ccccc1)C(=O)O", "note": "[bestatin, (2S)-2-[[(2S,3R)-3-amino-2-hydroxy-4-phenylbutanoyl]amino]-4-methylpentanoic acid]", "values": [{"measurement": "Hey1 and EphrinB2 expression in diseased lymphatics", "setting": "[1]", "result": "normalized"}, {"measurement": "NICD nuclear accumulation in mouse lymphedema", "setting": "[1]", "result": "restored"}, {"measurement": "lymphatic Sphk1 and eNOS expression after treatment", "setting": "[2]", "result": "remaining low"}, {"measurement": "reversal of lymphedema (tail volume, dermal thickness, lymphatic dilation)", "setting": "[2]", "result": "failed to reverse lymphedema"}]}
